From publication PMC12195777, “Improved Bioavailability of Stilbenes from Cajanus cajan (L.) Millsp. Leaves Achieved by Hydroxypropyl-β-Cyclodextrin Inclusion: Preparation, Characterization and Pharmacokinetic Assessment” (Molecules, 2025)

Columns and labels:
[1] = In vivo pharmacokinetic study in rats after oral administration (UPLC-QqQ-MS/MS of plasma); design: species or system SD rats; details: for AUC(0-inf) / AUC(0-t) / Cmax / Tmax / half-life: male, SD, rat, plasma, n = 6; for relative bioavailability / time at which peak plasma concentration (Cmax) was reached: oral; for relative bioavailability: from the inclusion complex, using CCMLE as a reference; for time at which peak plasma concentration (Cmax) was reached: post-administration (Figure 6)
Method: Healthy male SD rats weighing 200 ± 20 g were housed in a specific pathogen-free (SPF) facility under controlled conditions (24 ± 1 °C, 50 ± 10% relative humidity) with a 12 h light/dark cycle. The animals were free to access purified water and a standard laboratory diet for a 1-week acclimatization period. After acclimatization, the rats were randomly divided into three groups (n = 6 per group): the control group (con), CCMLE group and stilbene/HP-β-CD inclusion complex group. The CCMLE group received an oral dose of 232 mg/kg CCMLE, while the stilbene/HP-β-CD inclusion complex group received 2.1 g/kg of the inclusion complex by oral gavage, with both containing the same amount of stilbenes. All animal experiments were performed in accordance with the National Institutes of Health Guide for the Care and Use of Laboratory Animals (NIH Publication No. 85-23, revised in 1996). The study protocol was approved by the Animal Care and Use Committee of Zhejiang University of Technology (approval number MGS20231227194).
Blood samples (approximately 300 μL) were collected via the retro-orbital venous plexus before dosing and at the following post-dose times of 5 min, 15 min, 30 min, 1 h, 1.5 h, 2 h, 4 h, 6 h, 8 h, 12 h and 24 h. Each sample was placed in an EDTA anticoagulation tube to prevent coagulation. The tubes were then centrifuged at 3500 rpm for 10 min. The upper layer of supernatant (plasma) was carefully collected and stored at −80 °C until further analysis.
The plasma samples stored at −80 °C were thawed at room temperature prior to processing. For each analysis, 100 μL of the plasma sample was accurately transferred into a centrifuge tube, followed by the addition of 40 μL of a chloramphenicol (CHL) solution (1 mg/mL) used as an internal standard (IS) and 260 μL methanol. The mixture was vortexed for 3 min to ensure thorough homogenisation and then centrifuged at 13,000 rpm for 10 min at 4 °C to precipitate proteins and other insoluble components. For analysis, 10 μL of the supernatant was injected into a ultra-high-performance liquid chromatography–triple-quadrupole tandem mass spectrometry (UPLC-QqQ-MS/MS) system.
The bioavailabilities of three stilbenes (LLC, CSA and MPA) in CCMLE and the stilbene/HP-β-CD inclusion complex were analyzed using a Waters Xevo TQ-S micro-mass spectrometry system (Waters, Milford, MA, USA) coupled to a Waters H-Class UPLC system. Chromatographic separation was performed on a Waters H-Class UPLC system equipped with a Welch Ultimate® UHPLC LP-C18 column (Waters, Milford, MA, USA, 2.1 × 50 mm, 1.8 μm) at 30 °C. The injection volume was 10 μL. The mobile phase consisted of ultrapure water (A) and acetonitrile (B) with a flow rate of 0.3 mL/min and an elution gradient programme as follows: 0–0.2 min, 90% A; 0.2–1.5 min, 90–5% A; 1.5–3.5 min, 5% A; and 3.5–5 min, 5–90% A.
Mass spectrometric analysis was performed on a Waters Xevo TQ-S micro system using electrospray ionization in the negative mode (ESI^−). The capillary voltage was 2.71 kV, and the ion source temperature was 150 °C. Nitrogen was used as the desolventizing gas and the cone pore gas, and argon was used as the collision gas. Data acquisition was performed in the multiple-reaction-monitoring (MRM) mode for all analytes.
The relative bioavailability of CSA, LLC and MPA in the stilbene/HP-β-CD inclusion complex was calculated using Equation (8), with CCMLE used as a reference:(8) Frel=AUCstilbenes/HP−β−CD/AUCCCMLE·DCCMLE/Dstilbenes/HP−β−CD·100% where AUCstilbenes/HP-β-CD and AUCCCMLE represent the areas under the blood concentration–time curve, and Dstilbenes/HP-β-CD and DCCMLE represent the orally administered dose (mg/kg).
DAS 2.0 software was used to calculate the pharmacokinetic parameters, including the area under the plasma concentration–time curve (AUC), maximum plasma concentration (Cmax), time to reach Cmax (tmax) and elimination half-life (t1/2), using a non-compartmental model. […]

[2] = Tissue distribution study in rats after oral administration; format: in vivo; details: oral CCMLE or inclusion complex, heart, liver, spleen, lungs, kidneys, brain
Method: The tissue distribution study followed the same experimental grouping and dosing protocols described in Section 3.12. Thirty minutes after dosing, the rats were euthanized and their tissues (including their heart, liver, spleen, lungs, kidneys and brain) were immediately collected. Each tissue was rinsed with a 0.9% NaCl solution, gently dried with filter paper, weighed and stored at −80 °C until analysis.
For sample preparation, 0.2 g of each tissue was homogenized in 0.5 mL of a 0.9% NaCl solution using a high-throughput tissue grinder (Jingxin, Shanghai, China). Next, 300 μL of the tissue homogenate was mixed with 50 μL of a CHL solution and 850 μL of methanol, vortexed for 3 min and centrifuged at 13,000 rpm for 10 min at 4 °C. Then 10 μL of the supernatant was injected into the UPLC-QqQ-MS/MS system for analysis.

[3] = quoted without reference; cited from earlier work
[4] = oral stilbene/HP-β-CD inclusion complex 2.1 g/kg

AUC(0-inf) ([1]; oral CCMLE 232 mg/kg) | AUC(0-t) ([1]; oral CCMLE 232 mg/kg) | Cmax ([1]; oral CCMLE 232 mg/kg) | Tmax ([1]; oral CCMLE 232 mg/kg) | half-life ([1]; oral CCMLE 232 mg/kg) | AUC(0-inf) [1, 4] | AUC(0-t) [1, 4] | Cmax [1, 4] | Tmax [1, 4] | half-life [1, 4] | relative bioavailability [1] | time at which peak plasma concentration (Cmax) was reached [1] | Structure (SMILES) | tissue-specific accumulation [2] | pKa of phenolic hydroxyl groups [3]
580 ± 170 ng·h/mL | 560 ± 160 ng·h/mL | 230 ± 60 ng/mL | 0.4 ± 0.3 h | 5.5 ± 1.7 h | 803 ± 140 ng·h/mL | 740 ± 100 ng·h/mL | 440 ± 130 ng/mL | 0.3 ± 0.1 h | 9 ± 4.1 h | 131% | 15 min | COc1cc(O)c(C(=O)O)c(/C=C/c2ccccc2)c1 [MPA, 4-O-methylpinosylvic acid] | relatively higher levels in the liver, lungs and kidneys | –
170 ± 66 ng·h/mL | 120 ± 41 ng·h/mL | 48 ng/mL | 0.3 ± 0.1 h | 11 ± 5.6 h | 470 ± 160 ng·h/mL | 240 ± 82 ng·h/mL | 140 ± 60 ng/mL | 0.3 ± 0.1 h | 13 ± 9.9 h | 198% | 15 min | COc1cc(/C=C/c2ccccc2)c(C(=O)O)c(O)c1CC=C(C)C [CSA, cajaninstilbene acid] | predominately concentrated in the liver | –
10 ± 9.3 ng·h/mL | 5.8 ± 2.9 ng·h/mL | 0.7 ± 0.5 ng/mL | 0.3 ± 0.1 h | 14 ± 8.7 h | 12 ± 6.7 ng·h/mL | 10 ± 6.7 ng·h/mL | 4.5 ± 2 ng/mL | 0.5 h | 6 h | 177% | – | COc1cc(O)cc(/C=C/c2ccccc2)c1CC=C(C)C [LLC, longistyle C] | higher concentrations in the heart and lungs | –
– | – | – | – | – | – | – | – | – | – | – | – | Oc1ccc(/C=C/c2cc(O)cc(O)c2)cc1 [resveratrol] | – | 9.5–10
